Patent US8536157B2, “Non-steroidal compounds” (The University of Melbourne, priority 2007, dated 2013)

Assays:
[1] = tested on: human airway smooth muscle (HASM) cells; assay: Proliferation of human airway smooth muscle cells in response to thrombin (cell counting); format: cell-based; settings: given as Log IC50 (negative values), thrombin 0.3 U/ml, 48 h, compound pre-incubated 30 minutes
From the text: (§1) 3. Effects of Compounds on the Proliferation of Cells in Response to the Proliferative Stimulus of Either Thrombin (Human Airway Smooth Muscle) or Basic Fibroblast Growth Factor (bFGF)(Human Lung Parenchymal Fibroblasts, pFb)
(§2) The effects of compounds of the present invention on the proliferation of cells in response to the proliferative stimulus of either thrombin (human airway smooth muscle) or basic fibroblast growth factor (bFGF)(human lung parenchymal fibroblasts, pFb) were investigated. Cells were seeded onto 6-well plates at a density of 1.5×10^4 cells cm^2, made quiescent by removal of serum-containing media for 24 hours and then stimulated for 48 h with either thrombin (0.3 U/ml) or bFGF (300 pM). The test compounds were pre-incubated with HASM or pFb cells for 30 minutes before the addition of thrombin. At the end of the 48 hour incubation period, cells were detached from the culture plate by trypsin (0.5% w/v in PBS containing 1 mM EDTA), incubated for 5 minutes at ambient temperature in PBS containing 0.5% (w/v) trypan blue, washed twice (2% FCS in PBS), isolated by centrifugation (12,000×g, 5 min) and resuspended in 200 μl 2% FCS in PBS for counting in a haemocytometer chamber.
Human airway smooth muscle (HASM) cells were cultured from macroscopically normal bronchi (0.5-2 cm diameter) obtained from lung resection or heart-lung transplant specimens provided by the Alfred Hospital (Melbourne) according to methods published in detail previously (Fernandes et al., 1999).
Approximately 0.1 g of smooth muscle was stripped from the wall of the bronchus for each cell culture. Dissected tissue was immersed in Dulbecco's modified Eagle's medium (DMEM) (Flow Laboratories, Scotland), supplemented with 100 U/mL penicillin G (CSL, Australia) and 100 μg/mL streptomycin (CSL, Australia). The tissue was rinsed in phosphate buffered saline (PBS; Oxoid, England) and the airway smooth muscle was chopped into 2 mm^3 pieces and digested for 2 hours in DMEM containing elastase (0.5 mg/mL: Worthington Biochemical, USA) followed by a 12 hour incubation in DMEM containing collagenase (1 mg/mL) (Worthington Biochemical, USA), at 37° C. with agitation.
The resulting cell suspension was centrifuged and washed three times in phosphate buffered saline (PBS). Following the last centrifugation step, the cells were resuspended in 25 mL of DMEM supplemented with L-glutamine (2 mM: Sigma, USA), penicillin G (100 U/mL), streptomycin (100 μg/mL), amphotericin B (2 μg/mL: Wellcome, UK) and heat-inactivated FCS (10% v/v: CSL, Australia) and seeded into 25 cm^2 culture flasks. The primary isolates were incubated for 7 to 14 days to reach confluence. […]

[2] = see WO 2004/101595; cited from earlier work
[3] = tested on: human lung parenchymal fibroblasts, pFb; assay: Proliferation of human lung parenchymal fibroblasts in response to bFGF (cell counting); format: cell-based; settings: Fibroblast, given as Log IC50 (negative values), bFGF 300 pM, 48 h
From the text: as §1
as §2, with “chamber. […]” for “chamber.”

[4] = target: proteins in rat lung membranes; assay: Competitive binding assay with [3H]-CP2117 on rat lung membranes (RLM); settings: given as Log IC50 (negative values); displacement of 10 nM [3H]-CP2117, overnight at 4° C.; ND- not detected
[5] = tested on: PGE2 release in J774 macrophages; assay: PGE2 release from LPS/IFNγ-stimulated J774 macrophages (radioimmunoassay); format: cell-based, murine; settings: Mus musculus, J774, 24 h, 30 min pre-treatment, 24 hour incubation; for activity at 1 µM: read-out: Effects on PGE2 release in J774 macrophages at 1 μM as a % of LPS/IFNγ control, mean; for activity at 10 µM: l0 μM, read-out: Effects on PGE2 release in J774 macrophages at l0 μM as a % of LPS/IFNγ control, mean
[6] = tested on: LPS-induced pulmonary inflammation in mice; assay: Model of pulmonary inflammation induced by intra-nasal delivery of LPS; format: in vivo; settings: CP933 150 mg/kg ip, dexamethasone 1 mg/kg ip, 2 hours after intranasal LPS
Protocol: The effect of the compounds of the present invention on BAL cell number, total BAL protein and inflammatory gene expression may be analysed. As an example, female Balb/c mice (17-21 g) may be given a single intraperitoneal (i.p.) injection of vehicle or CP92 (150, 50, 15 and 5 mg/kg in peanut oil DMSO). Two hours after the mice would be anaesthetised with methoxyflurane and a droplet of LPS (1 μg in saline) or sterile saline would be applied to the nose. As the animals breathe through their nose, the LPS or saline would be inhaled and gain access to the lung tissue. Twenty four hours post-LPS administration, mice would be euthanized with a mixture of 200 μl ketamine and 10 μl xylazine i.p., tracheotomised and bronchoalveolar lavage (BAL) performed for the assessment of cell number, cell type and protein content. The lungs would be removed and weighed as an indicator of any adverse effects of the drug treatment. Total RNA would be isolated from the lung tissues for analysis of gene expression (mRNA) using RT-PCR.

Row | Log IC50 RLM binding [4] | Structure (SMILES) | IC50 [1] [nM] | activity at 1 µM [5] [%] | activity at 10 µM [5] [%] | also measured
1 |  | COc1cc(I)c(C(C)=NOCc2ccc([N+](=O)[O-])cc2)cc1O [CP30220-minor (Z-), 5′-Hydroxy-2′-iodo-4′-methoxyacetophenone O-4-Nitrobenzyl Oxime] | 38.9 |  |  | 
2 |  | COc1cc2c(cc1O)C(=NOCc1ccc([N+](=O)[O-])cc1)C[C@@H]1[C@@H]2CC[C@]2(C)[C@@H](O)CC[C@@H]12 [CP-2117, 2-methoxy-6-(4-nitrobenzyloxyimino)estradiol] |  |  |  | anti-inflammatory activity in vitro [2]: anti-inflammatory activity
3 | −6.44 | COc1ccc(/C(C)=N/OCc2ccc([N+](=O)[O-])cc2)cc1O [CP30218, (E)-3′-Hydroxy-4′-methoxyacetophenone O-4-Nitrobenzyl Oxime] | 5890 | 218 | 188 | IC50 [3]: 6.61 nM; melting point: 105 to 105.7 °C
4 | −6.185 | COc1ccc(/C(C)=N/OCc2ccc3nonc3c2)cc1O [CP933, 1-(3-hydroxy-4-methoxyphenyl)ethanone-O-[(benzo[c][1,2,5]oxadiazol-5-yl)methyl]oxime] |  | 109 | 87 | Airspace (pulmonary) neutrophilia ([6]; FIG. 1A): attenuated the airspace neutrophilia; Protein in the broncho-alveolar lavage (BAL) fluid ([6]; FIG. 1B): reduced accumulation of protein
5 |  | CCC(=NOCc1ccc([N+](=O)[O-])cc1)c1cc(O)c(OC)cc1I [CP30222, 5′-Hydroxy-2′-iodo-4′-methoxypropiophenone O-4-Nitrobenzyl Oxime] | 8.32 |  |  | 
6 |  | CCC(=NOCc1ccc([N+](=O)[O-])cc1)c1ccc(OC)c(O)c1 [CP30221, 3′-Hydroxy-4′-methoxypropiophenone O-4-Nitrobenzyl Oxime] | 2880 |  |  | 
